Structures can show the parent of a compound that is named as a salt. Where two headings read alike, the source gives them in different places.
Key:
mouse writhing = mouse writhing assay (acetic acid induced); type: in vivo, mouse (albino male mice); details: for Percent Inhibition of Writhing: Table 4, dextropropoxyphene napsylate 40 mg/kg + saline p.o.; for ability to potentiate analgesic effect of dextropropoxyphene (in words): mouse, in vivo
Source text: Writhing, which is characterized by contraction of the abdominal musculature, extension of the hindlegs, and rotation of the trunk, was induced in albino male mice. The extent to which writhing is reduced following administration of a test compound is an indication of the analgesic activity of that compound.
Mice, weighing 18-24 grams, were fasted overnight and given the test compounds by gavage or subcutaneously. Writhing was then induced by the intraperitoneal administration of acetic acid (0.55 to 0.60 percent). Each treatment group consisted of five mice. The total number of writhes for the treatment group was determined during a 10-minute observation period starting five minutes after acetic acid administration.

[1] = administered alone (U.S. Pat. No. 4,035,511) or with morphine (U.S. Pat. No. 4,083,982); cited from earlier work
[2] = test system: monoamine uptake, especially serotonin; details: U.S. Pat. No. 4,313,896; cited from earlier work

## CCC(=O)O[C@](Cc1ccccc1)(c1ccccc1)[C@H](C)CN(C)C [Dextropropoxyphene Napsylate]
Mouse writhing; Mus musculus, po, 0.5 h, Table 3, saline pretreatment p.o. three hours prior, dextropropoxyphene napsylate p.o. 30 minutes prior to assessment, read-out: Inhibition of Mouse Writhing ED50
  ED50: 44.2 mg/kg
Mouse writhing; Mus musculus, po, 1 h, read-out: Inhibition of Mouse Writhing ED50
  ED50: 49.3 mg/kg
Mouse writhing; Mus musculus, po, 1 h, read-out: Percent Inhibition of Mouse Writhing
  inhibition at 10 mg/kg: 0%
Mouse writhing; Mus musculus, sc, 0.5 h, read-out: Induced Inhibition of Mouse Writhing ED50
  ED50: 9.95 mg/kg
Mouse writhing; 30 minutes after administration
  Percent Inhibition of Writhing: 40%
Mouse writhing; 60 minutes after administration
  Percent Inhibition of Writhing: 6%
Mouse writhing; 70 minutes after administration
  Percent Inhibition of Writhing: 10%
Mouse writhing; 120 minutes after administration
  Percent Inhibition of Writhing: 28%
Mouse writhing; 180 minutes after administration
  Percent Inhibition of Writhing: 5%
Mouse writhing; dextropropoxyphene napsylate 10 mg/kg p.o. alone, 60 minutes prior to assessment
  inhibition of mouse writhing (in words): no inhibition of the writhing
Mouse writhing; s.c., 30 minutes, 20 mg/kg fluoxetine hydrochloride s.c. concomitantly
  ED50 of dextropropoxyphene napsylate alone relative to that with fluoxetine hydrochloride: twice the amount needed

## CNCCC(Oc1ccc(C(F)(F)F)cc1)c1ccccc1 (stereo not shown) [Fluoxetine Hydrochloride]
Mouse writhing; fluoxetine hydrochloride alone, doses up to 160 mg/kg, 30-180 minutes before writhing was induced
  analgesic activity in mouse writhing test: devoid of analgesic activity

## CNCCC(Oc1ccc(C(F)(F)F)cc1)c1ccccc1 (stereo not shown) [Fluoxetine, 3-(4-trifluoromethylphenoxy)-N-methyl-3-phenylpropylamine]
Mouse writhing
  ability to potentiate analgesic effect of dextropropoxyphene (in words): potentiate the analgesic effect of dextropropoxyphene
[1]
  analgesic properties (in words): possess analgesic properties

## NCCC(Oc1ccc(C(F)(F)F)cc1)c1ccccc1 (stereo not shown) [Norfluoxetine, 3-(4-trifluoromethylphenoxy)-3-phenylpropylamine]
[2]
  monoamine uptake blockade (in words): block monoamine uptake, especially serotonin
Mouse writhing
  ability to potentiate analgesic effect of dextropropoxyphene (in words): potentiate the analgesic effect of dextropropoxyphene

Source: patent US4594358A, “Analgesic method” (Eli Lilly and Company, priority 1985, dated 1986)
